Legend:
Type in all cases: cell-based, human
[1] = system: SERPINE1prom-Luc reporter in NAMEC8 cells; assay: Dual-Glo luciferase assay of SERPINE1prom-Luc reporter (FF/Ren); details: Homo sapiens, 72 h, primary screen; NAMEC8-SERPINE1prom-Luc cells grown 3 days with compound; relative to DMSO; read-out: Avr FF/Renilla from DMSO
[2] = system: SUM159; assay: Cell morphology of treated SUM159; details: bexarotene, TTNPB 1 μM
Procedure: HMLE-Twist-ER cells were generated as described. For EMT-induction, 100 nM of 4-hydroxytamoxifen in ethanol was added to the culture medium every 48 h to induce Twist expression. Control cells were treated with ethanol. MCF7-Slug+Sox9 cells were generated as previously described. HMLE-Zeb1 cells were generated by infection with FUW-Zeb1 and rTTA. Doxycycline was added to the culture medium every 48 h to induce Zeb1 expression. To generate tumorigenic cells from NAMEC8, cells were infected with pWZL-Blast-Ras. MCF7, MCF7-Ras, SUM159 were maintained as previously described. All cell cultures were maintained at 37° C. with 5% CO2.

[3] = system: BC2.2, BC22.1, BC29.1, MetBR 007-DR; assay: EMT and lineage markers in patient-derived triple-negative breast cancer cell lines; details: patient-derived TNBC cell lines
Procedure: Breast tissue biopsies from cancer patients were obtained from National Cancer Centre Singapore (NCCS) with patients' consent and under an IRB approved protocol (2015/2976). Tissue was digested with 1 mg/ml collagenase IV (Gibco) and 1 mg/ml dispase II (Thermo Fisher Scientific) in F12 media for 2 h while shaking in a 37° C. incubator. Cell suspension was then put through a cell strainer and centrifuged for 10 min at 1500 rpm. Cells were then washed twice and resuspended in media before seeding on irradiated 3T3 feeders as previously described. When confluent, sub-culturing was carried out by first lifting the feeders using 0.15% trypsin for 2 min. […]
Cells were rinsed twice in ice-cold PBS. Total RNA was extracted using Trizol (Invitrogen) and column-purified with RNeasy kits (Qiagen). cDNA synthesis was performed with 500 ng of total RNA at 37° C. for 2 h using the SuperScript III First-Strand Synthesis System (Thermo Fisher Scientific), and subsequently diluted 5-fold. mRNA levels were measured with gene-specific primers listed below using the ABI Prism 7900HT Sequence Detection System 2.2 (Applied Biosystems). Results were normalized to GAPDH and analyzed using SDS 2.2 software.
Cells were harvested and scraped from culture dishes in ice-cold PBS. […] Protein concentrations were determined using Coomaisse Blue. […]

[4] = system: NAMEC8 and SUM159, BC2.2 and BC22.1; assay: In vitro measurement of IC50 of 5-FU/PAC in bexarotene-treated cells; details: bexarotene-treated vs DMSO cells
Text: Data were normalized to vehicle controls.

[5] = system: NAMEC8, SUM159 and BC2.2; assay: Oxygen consumption rate with palmitate (Seahorse); details: supplemented with palmitate
Procedure: FAO rate was measured using the mitochondrial stress test on the XF96 analyzer (Seahorse Bioscience) according to manufacturer's instructions. Cells were seeded in 96well XF96 cell culture plates at a density of 9000 cells/well in complete media. Cells were then incubated with XF modified DMEM assay medium (Seahorse Bioscience) supplemented with 1 mM glutamine, 0.5 mM glucose, 1% FBS and 0.5 mM carnitine the next day for 18 h. On the day of the assay, cells were incubated with FAO assay medium (KHB: 111 mM NaCl, 4.7 mM KCl, 1.25 mM CaCl2), 2 mM MgSO4, 1.2 mM NaH2 PO4 supplemented with 2.5 mM glucose, 0.5 mM carnitine, 5 mM HEPES, adjusted to pH7.4) 45 min prior to the assay in a non-CO2 incubator. Seahorse XF Cell Mito Stress Test compounds (2 μM oligomycin, 2 μM FCCP, 2 μM rotenone). […] Just prior to starting the assay, XF Palmitate-BSA FAO substrate or BSA was added to the cells. Plate was then put into the XF96 analyzer and the XF Cell Mito Stress Test was run using the recommended protocol. Rate of FAO was calculated by the difference in maximal respiration when Palmitate-BSA FAO substrate was supplemented relative to BSA control.

C=C(c1ccc(C(=O)O)cc1)c1cc2c(cc1C)C(C)(C)CCC2(C)C [Bexarotene]
activity at 10 µM [1]: 31% | cell morphology [2]: dramatic change in morphology from scattered, spindle and fibroblastic-like cells to an epithelial-like morphology | expression of EMT and lineage markers [3]: increased the expression of E-cadherin, while reducing SLUG expression, to varying extents | conferred susceptibility to 5-FU or paclitaxel [4]: 4-6 folds | oxygen consumption rate (OCR) [5]: lower OCR when supplemented with palmitate
